Results as given in PubChem BioAssay AID248 (DTP/NCI, 2004).
Where “and” joins values, the source holds several entries; their conditions need not be identical. Equal values may be shown once. Inconclusive results and toxic doses are left out. Rule as the data show it: active = T/C of 150% or more; inactive = T/C below 125%.

Test system: L1210 leukemia ip in BDF1 mice, survival T/C
Test: NCI In Vivo Anticancer Drug Screen. Data for tumor model L1210 Leukemia (intraperitoneal) in B6D2F1 (BDF1) mice
Details: endpoint: mean survival time, higher = longer survival
In short: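 Transplantable tumor model; survival measured in treated vs vehicle control mice. Value = treated/control.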

[1] = dose: 100.0 mg/kg/injection, schedule: Q04DX003 (ip), vehicle: saline
[2] = dose: 200.0 mg/kg/injection, schedule: Q04DX003 (ip), vehicle: saline
[3] = dose: 400.0 mg/kg/injection, schedule: Q04DX003 (ip), vehicle: saline
[4] = dose: 100.0 mg/kg/injection, schedule: Q04DX003 (ip), vehicle: Klucel (hydroxypropylcellulose) (HPC)
[5] = dose: 50.0 mg/kg/injection, schedule: Q01DX001 (ip), vehicle: carboxymethylcellulose (CMC)
[6] = dose: 200.0 mg/kg/injection, schedule: Q01DX001 (ip), vehicle: carboxymethylcellulose (CMC)
[7] = dose: 400.0 mg/kg/injection, schedule: Q01DX001 (ip), vehicle: carboxymethylcellulose (CMC)
[8] = dose: 100.0 mg/kg/injection, schedule: Q01DX001 (ip), vehicle: saline
[9] = dose: 200.0 mg/kg/injection, schedule: Q01DX001 (ip), vehicle: saline
[10] = dose: 400.0 mg/kg/injection, schedule: Q01DX001 (ip), vehicle: saline
[11] = dose: 100.0 mg/kg/injection, schedule: Q01DX009 (ip), vehicle: saline with Tween-80
[12] = dose: 100.0 mg/kg/injection, schedule: Q04DX003 (ip), vehicle: saline with Tween-80
[13] = dose: 200.0 mg/kg/injection, schedule: Q01DX009 (ip), vehicle: saline with Tween-80
[14] = dose: 200.0 mg/kg/injection, schedule: Q04DX003 (ip), vehicle: saline with Tween-80
[15] = dose: 100.0 mg/kg/injection, schedule: Q04DX002 (ip), vehicle: Klucel (hydroxypropylcellulose) (HPC)
[16] = dose: 200.0 mg/kg/injection, schedule: Q04DX002 (ip), vehicle: Klucel (hydroxypropylcellulose) (HPC)
[17] = dose: 400.0 mg/kg/injection, schedule: Q04DX002 (ip), vehicle: Klucel (hydroxypropylcellulose) (HPC)
[18] = dose: 100.0 mg/kg/injection, schedule: Q01DX001 (ip), vehicle: carboxymethylcellulose (CMC)

Measured: T/C

c1ccc(-c2nnc(-c3ccccn3)s2)nc1
inactive: dose: 50.0 mg/kg/injection, schedule: Q01DX001 (ip), vehicle: water 108 % of control | dose: 100.0 mg/kg/injection, schedule: Q01DX001 (ip), vehicle: water 103 % of control | dose: 200.0 mg/kg/injection, schedule: Q01DX001 (ip), vehicle: water 106 % of control | dose: 400.0 mg/kg/injection, schedule: Q01DX001 (ip), vehicle: water 111 % of control

Cn1cnnc1N
inactive: [1] 97 % of control | [2] 101 % of control | [3] 103 % of control

O=C(O)/C=C/c1c2ccc(=O)cc-2oc2cc(O)ccc12
inactive: [4] 96 % of control | dose: 200.0 mg/kg/injection, schedule: Q04DX003 (ip), vehicle: Klucel (hydroxypropylcellulose) (HPC) 91 % of control | dose: 400.0 mg/kg/injection, schedule: Q04DX003 (ip), vehicle: Klucel (hydroxypropylcellulose) (HPC) 105 % of control

COC(=O)C(C)O (configuration not stated)
inactive: [1] 97 % of control | [2] 105 % of control | [3] 107 % of control

CCC(CC)N(C)C(C)(C)CO
inactive: dose: 100.0 mg/kg/injection, schedule: Q04DX003 (ip), vehicle: saline sonified 90 % of control | dose: 200.0 mg/kg/injection, schedule: Q04DX003 (ip), vehicle: saline sonified 87 % of control

COC(=O)C1C2C3CC(C4CC43)C12 (configuration not stated)
inactive: dose: 100.0 mg/kg/injection, schedule: Q01DX009 (ip), vehicle: saline 92 % of control | [1] 93 % of control | dose: 200.0 mg/kg/injection, schedule: Q01DX009 (ip), vehicle: saline 92 % of control | [2] 107 % of control | dose: 400.0 mg/kg/injection, schedule: Q01DX009 (ip), vehicle: saline 96 % of control | [3] 96 % of control

O=C1OC(=O)c2c(Br)cccc21
inactive: dose: 5.0 mg/kg/injection, schedule: Q04DX003 (ip), vehicle: Klucel (hydroxypropylcellulose) (HPC) 102 % of control | dose: 10.0 mg/kg/injection, schedule: Q04DX003 (ip), vehicle: Klucel (hydroxypropylcellulose) (HPC) 100 % of control | dose: 20.0 mg/kg/injection, schedule: Q04DX003 (ip), vehicle: Klucel (hydroxypropylcellulose) (HPC) 114 % of control

O=C(CCl)c1ccc2c(c1)Nc1ccccc1S2
inactive: [5] 93 % of control | [6] 93 % of control | [7] 96 % of control

CC(=O)CCCCC(C)=O
inactive: [8] 98 % of control | [9] 101 % of control | [10] 104 % of control

CC(C)(C)OC(=O)NCCCCC(NC(=O)OCc1ccccc1)C(=O)O (configuration not stated)
inactive: dose: 25.0 mg/kg/injection, schedule: Q04DX002 (ip), vehicle: saline with Tween-80 90 % of control | dose: 50.0 mg/kg/injection, schedule: Q04DX002 (ip), vehicle: saline with Tween-80 97 % of control | [11] 89 % of control | dose: 100.0 mg/kg/injection, schedule: Q04DX002 (ip), vehicle: saline with Tween-80 101 % of control

[CH3][Sn]([CH3])([Cl])[Cl]
inactive: dose: 29.0 mg/kg/injection, schedule: Q01DX009 (ip), vehicle: saline 112 % of control

[Br][Ga]([Br])[Br]
inactive: [8] 100 % of control | [9] 101 % of control | [10] 103 % of control

O=C(NC(=S)Nc1cc(C(F)(F)F)ccc1Cl)c1cccc([N+](=O)[O-])c1
inactive: dose: 100.0 mg/kg/injection, schedule: Q01DX001 (ip), vehicle: saline with Tween-80 105 % of control | [11] 96 % of control and 108 % of control | [12] 99 % of control | dose: 200.0 mg/kg/injection, schedule: Q01DX001 (ip), vehicle: saline with Tween-80 103 % of control | [13] 92 % of control and 99 % of control | dose: 200.0 mg/kg/injection, schedule: Q04DX002 (ip), vehicle: saline with Tween-80 98 % of control and 118 % of control | [14] 103 % of control | dose: 400.0 mg/kg/injection, schedule: Q01DX001 (ip), vehicle: saline with Tween-80 87 % of control | dose: 400.0 mg/kg/injection, schedule: Q01DX009 (ip), vehicle: saline with Tween-80 92 % of control and 94 % of control | dose: 400.0 mg/kg/injection, schedule: Q04DX002 (ip), vehicle: saline with Tween-80 95 % of control and 102 % of control | dose: 400.0 mg/kg/injection, schedule: Q04DX003 (ip), vehicle: saline with Tween-80 89 % of control

COc1ccc(NC(=O)COc2ccc(C)cc2C)cc1
inactive: [15] 95 % of control | [16] 103 % of control | [17] 89 % of control

CC(=O)Nc1ccc(/C=N\NC(=S)Nc2ccccc2)cc1
inactive: dose: 100.0 mg/kg/injection, schedule: Q01DX009 (ip), vehicle: Klucel (hydroxypropylcellulose) (HPC) 107 % of control | dose: 200.0 mg/kg/injection, schedule: Q01DX009 (ip), vehicle: Klucel (hydroxypropylcellulose) (HPC) 93 % of control | dose: 400.0 mg/kg/injection, schedule: Q01DX009 (ip), vehicle: Klucel (hydroxypropylcellulose) (HPC) 94 % of control

COC(=O)C(C)[P+](c1ccccc1)(c1ccccc1)c1ccccc1 (configuration not stated)
inactive: dose: 1.25 mg/kg/injection, schedule: Q01DX009 (ip), vehicle: saline 108 % of control | dose: 1.65 mg/kg/injection, schedule: Q01DX009 (ip), vehicle: saline 104 % of control and 114 % of control | dose: 2.5 mg/kg/injection, schedule: Q01DX001 (ip), vehicle: saline 96 % of control | dose: 2.5 mg/kg/injection, schedule: Q01DX009 (ip), vehicle: saline 107 % of control and 119 % of control | dose: 3.75 mg/kg/injection, schedule: Q01DX009 (ip), vehicle: saline 109 % of control and 110 % of control | dose: 5.0 mg/kg/injection, schedule: Q01DX001 (ip), vehicle: saline 110 % of control | dose: 5.0 mg/kg/injection, schedule: Q01DX009 (ip), vehicle: saline 97 % of control

CCCCN(CCCC)c1ccc(C(=O)O)cc1
inactive: [11] 100 % of control | [12] 100 % of control | [13] 102 % of control | [14] 98 % of control

NC(=O)Nc1ccc2c(c1)Cc1ccccc1-2
inactive: [5] 100 % of control | [18] 96 % of control | [6] 100 % of control | [7] 102 % of control

O=C(Nc1ccc(Br)cc1)c1cc(Br)ccc1O
inactive: [5] 98 % of control | [18] 102 % of control | [15] 103 % of control | [6] 89 % of control | [16] 92 % of control | [7] 94 % of control | [17] 95 % of control

O=C(O)c1cccc(Nc2ccccc2C(=O)O)c1
inactive: [18] 90 % of control | [6] 92 % of control

NC(=O)N/N=C1/CCN2CCCc3cccc1c32
inactive: dose: 12.5 mg/kg/injection, schedule: Q01DX009 (ip), vehicle: Klucel (hydroxypropylcellulose) (HPC) 95 % of control | dose: 25.0 mg/kg/injection, schedule: Q01DX009 (ip), vehicle: Klucel (hydroxypropylcellulose) (HPC) 103 % of control | dose: 25.0 mg/kg/injection, schedule: Q04DX003 (ip), vehicle: Klucel (hydroxypropylcellulose) (HPC) 103 % of control | dose: 50.0 mg/kg/injection, schedule: Q01DX009 (ip), vehicle: Klucel (hydroxypropylcellulose) (HPC) 93 % of control | dose: 50.0 mg/kg/injection, schedule: Q04DX003 (ip), vehicle: Klucel (hydroxypropylcellulose) (HPC) 97 % of control | [4] 95 % of control

CC1CCCCN1C(=O)c1ccccc1C(=O)O (configuration not stated)
inactive: [15] 104 % of control | [16] 111 % of control
